Read-outs that look alike come from different tables or passages of the source.
Key:
[1] = test system: brown dog ticks (R. sanguineus); test: Efficacy against brown dog ticks on dogs (Example 5); format: in vivo, Rhipicephalus sanguineus; conditions: beagles, Day 2 (approx. 48 hr after treatment)
Procedure: On Day Zero, one group of 4 beagles was treated orally with gelatin capsules containing 20 mg/kg body weight of […]. Another group of 4 beagles was treated topically by washing with 2 L of solution containing 200 ppm body weight of […] dissolved in DMF-premix/tap water (1:100, based on volume). Finally, a group of 3 beagles remained untreated as the negative control. Two days before treatment on Day Zero, all the beagles were each infested with approximately 80 unfed adult fleas (C. felis) and approximately 60 unfed adult ticks (R. sanguineus). The parasite burden of each beagle was assessed on Day 2 (approximately 48 hr after the treatment) by removing and counting the fleas and ticks. Fleas and ticks were classified according to vitality (fleas: dead or alive; ticks: dead or alive, and engorged or not engorged). The efficacy was calculated from the mean number of vital fleas and ticks in the treated group (Mt) relative to the mean number of vital fleas and ticks in the untreated control group (Mc) using following formula: […]

[2] = test system: brown dog ticks (R. sanguineus); test: Further efficacy study against brown dog ticks on beagles (Example 6); format: in vivo, Rhipicephalus sanguineus
Procedure: (§1) Beagles were randomly assigned to 5 treatment groups of 4 animals each, and one untreated control group of 3 animals.
(§2) The dogs were infested with approximately 80 fleas (C. felis) and 60 ticks (R. sanguineus) on Days −2, 7, 14, 21, 28, 35, 42, and 49. Fleas and ticks were counted on Day 2 (approximately 48 h after treatment), as well as Days 9, 16, 23, 30, 37, 44, and 51 (approximately 48 hr after each post-treatment re-infestation) to evaluate the insecticidal and acaricidal activity in the treated groups. In Group B, an additional flea and tick infestation was conducted on Day 56, with a respective flea and tick count on Day 58. In addition to the flea and tick counts, blood samples were collected before the treatments, as well as approximately 2 hr, 4 hr, 8 hr, 24 hr, and 72 hr after the treatment on Day Zero, and then once on each of Days 7, 14, 21, 28, 35, 42, 49, and 56. The concentration of Compound 11-1 in blood plasma was analyzed by HPLC/MS/MS. The LOQ of this method was 5 ng/ml.

[3] = test system: cat fleas (Ctenocephalides felis); test: Efficacy of various isoxazolines against cat fleas on mice (Example 3); format: in vivo; conditions: Ctenocephalides felis, po, mice, oral 20 mg/kg, infested 1 hr after treatment, read-out: Flea inhibition relative to negative control
Procedure: In this experiment, mice were randomly assigned to a treatment group or a negative control (untreated) group. Each group consisted of three mice. The mice in the treatment groups were orally administered 20 mg/kg bodyweight of various isoxazolines dissolved in 7% DMF-premix and 93% purified water (aqua ad injectabilia). The application volume of these treatments was 0.01 mL/g bodyweight. One hour after treatment, each mouse was sedated and generally infested (whole body) with 30 vital, adult fleas (C. felis). To achieve this, the sedated mice were placed into an infestation-jar, and the fleas were placed directly onto the fur. After approximately 30 minutes of feeding, fleas were recovered from the mice. Assessments for inhibition and mortality were conducted 1 hr, 24 hr, and 48 hr after each infestation. The efficacy was calculated as the percentage of inhibited fleas in the treatment groups relative to the negative control group.

[4] = test system: cat fleas (C. felis); test: Further efficacy study against cat fleas on beagles (Example 6); format: in vivo, Ctenocephalides felis
Procedure: as §1, §2

[5] = Group A: 1 mg/kg oral tablet, Day 2
[6] = Group A: 1 mg/kg oral tablet, Day 9
[7] = Group A: 1 mg/kg oral tablet, Day 16
[8] = Group A: 1 mg/kg oral tablet, Day 23
[9] = Group A: 1 mg/kg oral tablet, Day 30
[10] = Group A: 1 mg/kg oral tablet, Day 37
[11] = Group A: 1 mg/kg oral tablet, Day 44
[12] = Group A: 1 mg/kg oral tablet, Day 51
[13] = Group B: 1 mg/kg subcutaneous injectable solution, Day 2
[14] = Group B: 1 mg/kg subcutaneous injectable solution, Day 9
[15] = Group B: 1 mg/kg subcutaneous injectable solution, Day 16
[16] = Group B: 1 mg/kg subcutaneous injectable solution, Day 23
[17] = Group B: 1 mg/kg subcutaneous injectable solution, Day 30
[18] = Group B: 1 mg/kg subcutaneous injectable solution, Day 37
[19] = Group B: 1 mg/kg subcutaneous injectable solution, Day 44
[20] = Group B: 1 mg/kg subcutaneous injectable solution, Day 51
[21] = Group B: 1 mg/kg subcutaneous injectable solution, Day 58
[22] = Group C: 1 mg/kg topical spot-on with absorption enhancer, Day 2
[23] = Group C: 1 mg/kg topical spot-on with absorption enhancer, Day 9
[24] = Group C: 1 mg/kg topical spot-on with absorption enhancer, Day 16
[25] = Group C: 1 mg/kg topical spot-on with absorption enhancer, Day 23
[26] = Group C: 1 mg/kg topical spot-on with absorption enhancer, Day 30
[27] = Group C: 1 mg/kg topical spot-on with absorption enhancer, Day 37
[28] = Group C: 1 mg/kg topical spot-on with absorption enhancer, Day 44
[29] = Group C: 1 mg/kg topical spot-on with absorption enhancer, Day 51
[30] = Group D: 1 mg/kg topical spot-on with absorption enhancer and spreading agent, Day 2
[31] = Group D: 1 mg/kg topical spot-on with absorption enhancer and spreading agent, Day 9
[32] = Group D: 1 mg/kg topical spot-on with absorption enhancer and spreading agent, Day 16
[33] = Group D: 1 mg/kg topical spot-on with absorption enhancer and spreading agent, Day 23
[34] = Group D: 1 mg/kg topical spot-on with absorption enhancer and spreading agent, Day 30
[35] = Group D: 1 mg/kg topical spot-on with absorption enhancer and spreading agent, Day 37
[36] = Group D: 1 mg/kg topical spot-on with absorption enhancer and spreading agent, Day 44
[37] = Group D: 1 mg/kg topical spot-on with absorption enhancer and spreading agent, Day 51
[38] = Group E: 1 mg/kg topical spot-on in ethyl lactate, Day 2
[39] = Group E: 1 mg/kg topical spot-on in ethyl lactate, Day 9
[40] = Group E: 1 mg/kg topical spot-on in ethyl lactate, Day 16
[41] = Group E: 1 mg/kg topical spot-on in ethyl lactate, Day 23
[42] = Group E: 1 mg/kg topical spot-on in ethyl lactate, Day 30
[43] = Group E: 1 mg/kg topical spot-on in ethyl lactate, Day 37
[44] = Group E: 1 mg/kg topical spot-on in ethyl lactate, Day 44
[45] = Group E: 1 mg/kg topical spot-on in ethyl lactate, Day 51

Cc1cc(C2=NOC(c3cc(Cl)cc(Cl)c3)(C(F)(F)F)C2)ccc1C(=O)NCC(=O)NCC(F)(F)F (racemic) [Compound 11-1, 4-[5-(3,5-dichlorophenyl)-5-trifluoromethyl-4,5-dihydroisoxazol-3-yl]-2-methyl-N-[(2,2,2-trifluoro-ethylcarbamoyl)-methyl]-benzamide]
Tick efficacy ([1]; oral gelatin capsules 20 mg/kg): 100%
Tick efficacy ([1]; topical washing with 2 L of 200 ppm solution): 100%
Efficacy against brown dog ticks [2, 5]: 99.4
Efficacy against brown dog ticks [2, 6]: 99.3
Efficacy against brown dog ticks [2, 7]: 98.3
Efficacy against brown dog ticks [2, 8]: 98.2
Efficacy against brown dog ticks [2, 9]: 98.9
Efficacy against brown dog ticks [2, 10]: 94.6
Efficacy against brown dog ticks [2, 11]: 82.0
Efficacy against brown dog ticks [2, 12]: 82.0
Efficacy against brown dog ticks [2, 13]: 100
Efficacy against brown dog ticks [2, 14]: 99.3
Efficacy against brown dog ticks [2, 15]: 100
Efficacy against brown dog ticks [2, 16]: 98.8
Efficacy against brown dog ticks [2, 17]: 99.5
Efficacy against brown dog ticks [2, 18]: 98.8
Efficacy against brown dog ticks [2, 19]: 95.1
Efficacy against brown dog ticks [2, 20]: 88.8
Efficacy against brown dog ticks [2, 21]: 74.0
Efficacy against brown dog ticks [2, 22]: 81.9
Efficacy against brown dog ticks [2, 23]: 98.7
Efficacy against brown dog ticks [2, 24]: 94.8
Efficacy against brown dog ticks [2, 25]: 98.2
Efficacy against brown dog ticks [2, 26]: 96.2
Efficacy against brown dog ticks [2, 27]: 87.0
Efficacy against brown dog ticks [2, 28]: 76.5
Efficacy against brown dog ticks [2, 29]: 55.3
Efficacy against brown dog ticks [2, 30]: 83.1
Efficacy against brown dog ticks [2, 31]: 96.1
Efficacy against brown dog ticks [2, 32]: 98.3
Efficacy against brown dog ticks [2, 33]: 98.2
Efficacy against brown dog ticks [2, 34]: 96.2
Efficacy against brown dog ticks [2, 35]: 94.1
Efficacy against brown dog ticks [2, 36]: 73.8
Efficacy against brown dog ticks [2, 37]: 63.4
Efficacy against brown dog ticks [2, 38]: 70.6
Efficacy against brown dog ticks [2, 39]: 90.2
Efficacy against brown dog ticks [2, 40]: 95.9
Efficacy against brown dog ticks [2, 41]: 91.5
Efficacy against brown dog ticks [2, 42]: 97.8
Efficacy against brown dog ticks [2, 43]: 89.2
Efficacy against brown dog ticks [2, 44]: 79.8
Efficacy against brown dog ticks [2, 45]: 59.6
pest or weed control at 20 mg/kg ([3]; 1 h, 1 hr after infestation): 78.9%
pest or weed control at 20 mg/kg ([3]; 24 h, 24 hr after infestation): 96.7%
pest or weed control at 20 mg/kg ([3]; 48 h, 48 hr after infestation): 97.8%
Efficacy against cat fleas [4, 5]: 100
Efficacy against cat fleas [4, 6]: 100
Efficacy against cat fleas [4, 7]: 100
Efficacy against cat fleas [4, 8]: 100
Efficacy against cat fleas [4, 9]: 100
Efficacy against cat fleas [4, 10]: 99.6
Efficacy against cat fleas [4, 11]: 100
Efficacy against cat fleas [4, 12]: 100
Efficacy against cat fleas [4, 13]: 100
Efficacy against cat fleas [4, 14]: 100
Efficacy against cat fleas [4, 15]: 100
Efficacy against cat fleas [4, 16]: 100
Efficacy against cat fleas [4, 17]: 99.6
Efficacy against cat fleas [4, 18]: 100
Efficacy against cat fleas [4, 19]: 100
Efficacy against cat fleas [4, 20]: 100
Efficacy against cat fleas [4, 21]: 99.7
Efficacy against cat fleas [4, 22]: 100
Efficacy against cat fleas [4, 23]: 100
Efficacy against cat fleas [4, 24]: 100
Efficacy against cat fleas [4, 25]: 100
Efficacy against cat fleas [4, 26]: 100
Efficacy against cat fleas [4, 27]: 100
Efficacy against cat fleas [4, 28]: 100
Efficacy against cat fleas [4, 29]: 100
Efficacy against cat fleas [4, 30]: 100
Efficacy against cat fleas [4, 31]: 100
Efficacy against cat fleas [4, 32]: 100
Efficacy against cat fleas [4, 33]: 100
Efficacy against cat fleas [4, 34]: 100
Efficacy against cat fleas [4, 35]: 100
Efficacy against cat fleas [4, 36]: 100
Efficacy against cat fleas [4, 37]: 100
Efficacy against cat fleas [4, 38]: 100
Efficacy against cat fleas [4, 39]: 100
Efficacy against cat fleas [4, 40]: 100
Efficacy against cat fleas [4, 41]: 100
Efficacy against cat fleas [4, 42]: 100
Efficacy against cat fleas [4, 43]: 100
Efficacy against cat fleas [4, 44]: 100
Efficacy against cat fleas [4, 45]: 100

— patent US20240239759A1, “ISOXAZOLINE COMPOSITIONS AND THEIR USE AS ANTIPARASITICS” (Intervet Inc., priority 2007, published 2024)
